Test results reported in PubChem BioAssay (NCI).
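Each compound was tested at five concentrations against cells in 96-well plates for 48 hours. Here, GI50 denotes the concentration required for 50% inhibition of growth. Definition used: TGI = concentration required for complete inhibition of growth.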

Legend:
Test in all cases: growth of human tumour cells (NCI), 48 h
[1] = test system: U251 CNS
[2] = test system: SF-268 CNS
[3] = test system: COLO 205 colon
[4] = test system: MDA-MB-435
[5] = test system: OVCAR-8 ovarian
[6] = test system: T-47D breast
[7] = test system: HOP-62 NSCLC
[8] = test system: CCRF-CEM leukemia
[9] = test system: CAKI-1 renal
[10] = test system: HOP-92 NSCLC

SMILES	GI50 [1] [µM]	TGI [1] [µM]	GI50 [2] [µM]	TGI [2] [µM]	GI50 [3] [µM]	TGI [3] [µM]	GI50 [4] [µM]	TGI [4] [µM]	GI50 [5] [µM]	TGI [5] [µM]	GI50 [6] [µM]	TGI [6] [µM]	GI50 [7] [µM]	TGI [7] [µM]	GI50 [8] [µM]	TGI [8] [µM]	GI50 [9] [µM]	TGI [9] [µM]	TGI [10] [µM]	GI50 [10] [µM]
Cc1[nH]n(-c2cccc(Cl)c2)c(=O)c1/C=C1\C=c2ccccc2=CC1=O	40.7	> 100	97.1	> 100	> 100	> 100	> 100	> 100	> 100	> 100	> 100	> 100	31.4	> 100	97.5	> 100	> 100	> 100	–	–
Cn1cc(C2=C(c3c(S(C)=O)n(C)c4ccccc34)C(=O)NC2=O)c2ccccc21 (stereo not drawn)	8.64	> 25	11.7	> 25	5.96	> 18.6	2.68	9.14	12.3	> 25	8.35	> 25	8.34	> 25	7.19	> 25	6.04	> 25	–	–
COC(=O)NC(=O)c1cn(C2CCCCC2)c(=O)[nH]c1=O	–	> 100	–	> 100	–	> 100	–	–	–	> 100	–	–	–	> 100	–	> 100	–	> 100	> 100	–
N#CC1C(=O)NC(=O)C1=O (stereo not drawn)	–	> 100	–	> 100	–	> 100	–	–	–	> 100	–	–	–	> 100	–	–	–	> 100	> 100	–
O=C(/C=C/c1ccc(O)cc1)c1cc(Cl)ccc1O	–	> 100	–	> 100	–	> 100	–	–	–	> 100	–	–	–	> 100	–	44.8	–	> 100	> 100	–
O=C1c2ccccc2C(=O)c2c1ccc1c2N=C(c2ccc(Br)cc2)CC(c2cccc3ccccc23)N1 (stereo not drawn)	–	> 100	–	> 100	–	> 100	–	–	–	> 100	–	–	–	> 100	–	> 100	–	> 100	–	–
O=C(O)COc1ccc(C(=O)/C(SS/C(C(=O)c2ccc(OCC(=O)O)c(Cl)c2Cl)=C2\C=C(c3ccccc3Cl)SS2)=C2/C=C(c3ccccc3Cl)SS2)c(Cl)c1Cl	–	36.5	–	> 88.3	–	> 77.1	–	–	–	> 100	–	–	–	> 100	–	33.5	–	> 94.7	24.3	–
COc1cc(-c2nn(-c3cccc(NC(=O)CCN4CCN(C)CC4)c3)cc2-c2ccncc2)ccc1Cl	1.29	3.4	1.43	3.53	1.09	2.47	0.283	1.13	2.77	12	2.34	10.1	1.36	4.38	1.98	6.85	–	–	6.42	0.675
O=C(O)c1cn(C2CC2)c2cc(N3CCN(Cc4ccc5ccccc5c4O)CC3)c(F)cc2c1=O	4.87	> 100	8.13	> 100	3.27	> 100	3.12	> 100	3.74	> 100	> 100	> 100	2.45	9.36	–	–	–	–	5.44	2.15
